How the values were obtained:
Type in all cases: in vivo
Spring Wheat “Freya” = assay: Test 1B glasshouse assay, post-emergence herbicidal activity against cereal crops
Poa annua (POAAN) = assay: Test 1B glasshouse assay, post-emergence herbicidal activity against grassy weeds; conditions: 14 DAA
How it was run: (§1)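 Post-emergence spray, 14-day-old plants, glasshouse 22/16 °C day/night, 16 h light, 65% humidity. Test herbicide typically 60, 90 or 120 g/ha; cloquintocet-mexyl safener 50 g/ha optional at 60, included at 90/120. Scored visually 14 DAA, 0–100% damage, 2 reps averaged.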

[1] = test system: Lolium multiflorum (LOLMU); assay: as above; conditions: 14 DAA
How it was run: as §1

Avena fatua (AVEFA) [2] = assay: as above; conditions: 14 DAA
How it was run: as §1

[3] = test system: Alopecurus myosuroides (ALOMY); assay: as above; conditions: 14 DAA
How it was run: as §1

Setaria viridis (SETVI) = assay: as above; conditions: 14 DAA
How it was run: as §1

Lolium perenne (LOLPE) [4] = assay: Test 1A glasshouse assay, pre-emergence herbicidal activity; conditions: 312 h, 250 g/ha, 13 days after application, read-out: Pre-emergence herbicidal activity (% phytotoxicity) LOLPE
Protocol: (§2) Seeds of a variety of test species were sown in standard soil in pots. After cultivation for one day (pre-emergence) or after 8 days cultivation (post-emergence) under controlled conditions in a glasshouse (at 24/16° C., day/night; 14 hours light; 65% humidity), the plants were sprayed with an aqueous spray solution derived from the formulation of the technical active ingredient in acetone/water (50:50) solution containing 0.5% Tween 20 (polyoxyethelyene sorbitan monolaurate, CAS RN 9005-64-5). The test plants were then grown under controlled conditions in a glasshouse (at 24/16° C., day/night; 14 hours light; 65% humidity) and watered twice daily. 13 days after application of the test herbicide, for pre- and post-emergence, the test was evaluated visually for percentage phytotoxicity to the plant (where 100%=total damage to plant; 0%=no damage to plant).
(§3) Test plants: Lolium perenne (LOLPE), Alopecurus myosuroides (ALOMY), Echinochloa crus-galli (ECHCG), and Avena fatua (AVEFA); these are all grassy monocotyledonous weeds.

Avena fatua (AVEFA) [5] = assay: as above; conditions: 312 h, 250 g/ha, 13 days after application, read-out: Pre-emergence herbicidal activity (% phytotoxicity) AVEFA
Protocol: as §2, §3

[6] = test system: Echinochloa crus-galli (ECHCG); assay: as above; conditions: 312 h, 250 g/ha, 13 days after application, read-out: Pre-emergence herbicidal activity (% phytotoxicity) ECHCG
Protocol: as §2, §3

[7] = test system: Alopecurus myosuroides (ALOMY); assay: as above; conditions: 312 h, 250 g/ha, 13 days after application, read-out: Pre-emergence herbicidal activity (% phytotoxicity) ALOMY
Protocol: as §2, §3

Lolium perenne (LOLPE) [8] = assay: Test 1A glasshouse assay, post-emergence herbicidal activity; conditions: Lolium perenne, 312 h, application rate 250 g/ha, 13 days after application, visual (100%=total damage; 0%=no damage), read-out: Post-emergence Herbicidal Activity (% Phytotoxicity) LOLPE
How it was run: (§4)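 Pots sown in standard soil; plants grown 8 days in glasshouse (24/16 °C day/night, 14 h light, 65% humidity), then sprayed with compound formulated in acetone/water (50:50) with 0.5% Tween 20. Regrown under same conditions, watered twice daily; visual % phytotoxicity scored 13 days after application (0 = none, 100 = total damage).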

Avena fatua (AVEFA) [9] = assay: as above; conditions: Avena fatua, 312 h, application rate 250 g/ha, 13 days after application, visual (100%=total damage; 0%=no damage), read-out: Post-emergence Herbicidal Activity (% Phytotoxicity) AVEFA
How it was run: as §4

[10] = test system: Echinochloa crus-galli (ECHCG); assay: as above; conditions: Echinochloa crus-galli, 312 h, application rate 250 g/ha, 13 days after application, visual (100%=total damage; 0%=no damage), read-out: Post-emergence Herbicidal Activity (% Phytotoxicity) ECHCG
How it was run: as §4

[11] = test system: Alopecurus myosuroides (ALOMY); assay: as above; conditions: Alopecurus myosuroides, 312 h, application rate 250 g/ha, 13 days after application, visual (100%=total damage; 0%=no damage), read-out: Post-emergence Herbicidal Activity (% Phytotoxicity) ALOMY
How it was run: as §4

Winter Wheat “Hereward” = assay: Test 1B glasshouse assay, post-emergence herbicidal activity against cereal crops
How it was run: (§5)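 Technical compound in IF50 with acetone, diluted into 0.5% v/v Adigor, sprayed post-emergence on 14-day glasshouse plants (22/16 °C, 16 h light, 65% humidity), typically at 60, 90 or 120 g/ha, with or without 50 g/ha cloquintocet-mexyl safener. Phytotoxicity scored visually 14 DAA (0–100%), mean of two replicates.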

[12] = test system: Spring Barley “Harrington”; assay: as above
How it was run: as §5

Winter Barley “Suzuka” = assay: as above
How it was run: as §5

[13] = herbicide 30 g/ha, cloquintocet-mexyl 50 g/ha
[14] = herbicide 60 g/ha, cloquintocet-mexyl 0 g/ha
[15] = herbicide 60 g/ha, cloquintocet-mexyl 50 g/ha
[16] = 30 g/ha herbicide, 50 g/ha cloquintocet-mexyl
[17] = 60 g/ha herbicide, 0 g/ha cloquintocet-mexyl
[18] = 60 g/ha herbicide, 50 g/ha cloquintocet-mexyl

With `Cc1cc(C)c(C2C(=O)CC(CCNC(=O)c3cc(Cl)ccn3)C2=O)c(C)c1` (racemic) [Compound A23] the “Percentage Phytotoxicity Spring Wheat “Freya”” value (Spring Wheat “Freya”; [13]) was 5%, the “Percentage Phytotoxicity Spring Wheat “Freya”” value (Spring Wheat “Freya”; [14]) was 63% and the “Percentage Phytotoxicity Spring Wheat “Freya”” value (Spring Wheat “Freya”; [15]) was 7%. The “Post-emergence herbicidal activity, percentage phytotoxicity, POAAN” value (Poa annua (POAAN); [16]) was 0%, the “Post-emergence herbicidal activity, percentage phytotoxicity, POAAN” value (Poa annua (POAAN); [17]) was 0% and the “Post-emergence herbicidal activity, percentage phytotoxicity, POAAN” value (Poa annua (POAAN); [18]) was 0%. The “Post-emergence herbicidal activity, percentage phytotoxicity, LOLMU” value [1, 16] was 48%, the “Post-emergence herbicidal activity, percentage phytotoxicity, LOLMU” value [1, 17] was 90% and the “Post-emergence herbicidal activity, percentage phytotoxicity, LOLMU” value [1, 18] was 83%. The “Post-emergence herbicidal activity, percentage phytotoxicity, AVEFA” value (Avena fatua (AVEFA) [2]; [16]) was 13%, the “Post-emergence herbicidal activity, percentage phytotoxicity, AVEFA” value (Avena fatua (AVEFA) [2]; [17]) was 80% and the “Post-emergence herbicidal activity, percentage phytotoxicity, AVEFA” value (Avena fatua (AVEFA) [2]; [18]) was 70%. For the same compound, the “Post-emergence herbicidal activity, percentage phytotoxicity, ALOMY” value [3, 16] was 28%, the “Post-emergence herbicidal activity, percentage phytotoxicity, ALOMY” value [3, 17] was 75% and the “Post-emergence herbicidal activity, percentage phytotoxicity, ALOMY” value [3, 18] was 78%. The “Post-emergence herbicidal activity, percentage phytotoxicity, SETVI” value (Setaria viridis (SETVI); [16]) was 95%, the “Post-emergence herbicidal activity, percentage phytotoxicity, SETVI” value (Setaria viridis (SETVI); [17]) was 99% and the “Post-emergence herbicidal activity, percentage phytotoxicity, SETVI” value (Setaria viridis (SETVI); [18]) was 99%. The inhibition at 250 g/ha (Lolium perenne (LOLPE) [4]) was 100%, the inhibition at 250 g/ha (Avena fatua (AVEFA) [5]) was 80% and the inhibition at 250 g/ha [6] was 100%. It also gave an inhibition at 250 g/ha [7] of 90%, a pest or weed control at 250 g/ha (Lolium perenne (LOLPE) [8]) of 90% and a pest or weed control at 250 g/ha (Avena fatua (AVEFA) [9]) of 90%. The pest or weed control at 250 g/ha [10] was 100%, the pest or weed control at 250 g/ha [11] was 90% and the “Percentage Phytotoxicity Winter Wheat “Hereward”” value (Winter Wheat “Hereward”; [13]) was 0%. The “Percentage Phytotoxicity Winter Wheat “Hereward”” value (Winter Wheat “Hereward”; [14]) was 68%, the “Percentage Phytotoxicity Winter Wheat “Hereward”” value (Winter Wheat “Hereward”; [15]) was 0% and the “Percentage Phytotoxicity Spring Barley “Harrington”” value [12, 13] was 1%. For the same compound, the “Percentage Phytotoxicity Spring Barley “Harrington”” value [12, 14] was 75%, the “Percentage Phytotoxicity Spring Barley “Harrington”” value [12, 15] was 5% and the “Percentage Phytotoxicity Winter Barley “Suzuka”” value (Winter Barley “Suzuka”; [13]) was 0%. For the same compound, the “Percentage Phytotoxicity Winter Barley “Suzuka”” value (Winter Barley “Suzuka”; [14]) was 70% and the “Percentage Phytotoxicity Winter Barley “Suzuka”” value (Winter Barley “Suzuka”; [15]) was 15%.
